Test results: patent US12312332B2 (Merck Sharp & Dohme LLC., priority 2019, dated 2025)

Biological target: T1, human OX2R (Homo sapiens, UniProt O43614)
T1 construct: expressed in transfected cells; host or cells: Chinese hamster ovary (CHO) cells, kept under G418 selection
T1 sequence (O43614 1-444): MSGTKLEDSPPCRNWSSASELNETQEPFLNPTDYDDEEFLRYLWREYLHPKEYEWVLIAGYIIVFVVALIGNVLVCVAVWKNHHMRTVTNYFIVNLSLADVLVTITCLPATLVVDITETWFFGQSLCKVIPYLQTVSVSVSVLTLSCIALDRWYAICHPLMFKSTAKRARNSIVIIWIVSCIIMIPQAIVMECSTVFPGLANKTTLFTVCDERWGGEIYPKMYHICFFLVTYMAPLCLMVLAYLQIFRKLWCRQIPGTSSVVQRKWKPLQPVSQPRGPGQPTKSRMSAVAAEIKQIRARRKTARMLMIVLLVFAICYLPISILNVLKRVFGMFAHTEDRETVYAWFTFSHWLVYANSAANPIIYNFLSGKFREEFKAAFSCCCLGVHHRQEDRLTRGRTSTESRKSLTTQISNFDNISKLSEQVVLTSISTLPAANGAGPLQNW
Assay: IPOne (IP-One) orexin receptor agonist assay in CHO cells expressing human OX2R
Assay type: cell-based
Conditions: for EC50: CHO cells expressing human OX2R, IP-One detection, 2 hours incubation, four parameter logistic fit, read-out: OX2R Potency, EC50; for % max agonist effect (Emax): human OX2R, percentage of sample raw value/mean max effect (reference compound at 1 uM with 100% activity)

Row | EC50 [nM] | % max agonist effect (Emax) [%] | SMILES
1 | 174 | 101.3 | CS(=O)(=O)N[C@H]1CCN(c2ccccn2)[C@H]1CO[C@H]1CC[C@@H](c2ccccc2)CC1 [Example 16, N-((2R,3S)-2-((((CIS)-4-phenylcyclohexyl)oxy)methyl)-1-(pyridin-2-yl)pyrrolidin-3-yl)methanesulfonamide]
2 | 9 | 101.4 | CS(=O)(=O)N[C@H]1CCN(c2cncc(O)c2)[C@H]1CO[C@H]1CC[C@@H](c2ccccc2)CC1 [Example 47, N-((2R,3S)-1-(5-hydroxypyridin-3-yl)-2-((((CIS)-4-phenylcyclohexyl)oxy)methyl)pyrrolidin-3-yl)methanesulfonamide]
3 | 1400 | 68.5 | CS(=O)(=O)N[C@H]1CCN(c2cccc(C#N)n2)[C@H]1CO[C@H]1CC[C@@H](c2ccccc2)CC1 [Example 139, N-((2R,3S)-1-(6-cyanopyridin-2-yl)-2-((((CIS)-4-phenylcyclohexyl)oxy)methyl)pyrrolidin-3-yl)methanesulfonamide]
4 | 1900 | 92.1 | Cc1ncc(N2CC[C@H](NS(C)(=O)=O)[C@@H]2CO[C@H]2CC[C@@H](c3ccccc3)CC2)s1 (relative stereo) [Example 9, N-((CIS)-1-(2-methylthiazol-5-yl)-2-((((CIS)-4-phenylcyclohexyl)oxy)methyl)pyrrolidin-3-yl)methanesulfonamide]
5 | 1.8 | 97.9 | C[C@@H]1C[C@H](NS(C)(=O)=O)[C@H](CO[C@H]2CC[C@@H](c3ccccc3)CC2)N1c1nnnn1C [Example 80, N-((2R,3S,5R)-5-Methyl-1-(1-methyl-1H-tetrazol-5-yl)-2-((((CIS)-4-phenylcyclohexyl)oxy)-methyl)pyrrolidin-3-yl)methanesulfonamide]
6 | 393 | 99.6 | Cn1c(N2CC[C@H](NS(C)(=O)=O)[C@@H]2CO[C@H]2CC[C@@H](c3ccccc3)CC2)cccc1=O [Example 116, N-((2R,3S)-1-(1-methyl-6-oxo-1,6-dihydropyridin-2-yl)-2-((((CIS)-4-phenylcyclohexyl)oxy)methyl)pyrrolidin-3-yl)methanesulfonamide]
7 | 6830 | 77.3 | Cc1nccc(N2CC[C@H](NS(C)(=O)=O)[C@@H]2CO[C@H]2CC[C@@H](c3ccccc3)CC2)n1 [Example 48, N-((2R,3S)-1-(2-methylpyrimidin-4-yl)-2-((((CIS)-4-phenylcyclohexyl)oxy)methyl)pyrrolidin-3-yl)methanesulfonamide]
8 | 169 | 100.8 | CS(=O)(=O)N[C@H]1CCN(c2cc(O)ncc2F)[C@H]1CO[C@H]1CC[C@@H](c2ccccc2)CC1 [Example 153, N-((2R,3S)-1-(5-fluoro-2-hydroxypyridin-4-yl)-2-((((CIS)-4-phenylcyclohexyl)oxy)methyl)pyrrolidin-3-yl)methanesulfonamide]
9 | 2380 | 91.4 | COc1ncc(N2CC[C@H](NS(C)(=O)=O)[C@@H]2CO[C@H]2CC[C@@H](c3ccccc3)CC2)cc1C [Example 55, N-((2R,3S)-1-(6-methoxy-5-methylpyridin-3-yl)-2-((((CIS)-4-phenylcyclohexyl)oxy)methyl)pyrrolidin-3-yl)methanesulfonamide]
10 | 944 | 95.1 | CS(=O)(=O)N[C@H]1CCN(c2cncc(C(F)(F)F)c2)[C@H]1CO[C@H]1CC[C@@H](c2ccccc2)CC1 [Example 50, N-((2R,3S)-2-((((CIS)-4-phenylcyclohexyl)oxy)methyl)-1-(5-(trifluoromethyl)pyridin-3-yl)pyrrolidin-3-yl)methanesulfonamide]
11 | 370 | 100 | CS(=O)(=O)N[C@H]1CCN(c2ncccc2C(F)(F)F)[C@H]1CO[C@H]1CC[C@@H](c2ccccc2)CC1 [Example 126, N-((2R,3S)-2-((((CIS)-4-phenylcyclohexyl)oxy)methyl)-1-(3-(trifluoromethyl)pyridin-2-yl)pyrrolidin-3-yl)methanesulfonamide]
12 | 108 | 98.9 | CS(=O)(=O)N[C@H]1CCN(c2cc(=O)c(F)cn2CC(F)F)[C@H]1CO[C@H]1CC[C@@H](c2ccccc2)CC1 [Example 89, N-((2R,3S)-1-(1-(2,2-difluoroethyl)-5-fluoro-4-oxo-1,4-dihydropyridin-2-yl)-2-((((CIS)-4-phenylcyclohexyl)oxy)methyl)pyrrolidin-3-yl)methanesulfonamide]
13 | 172 | 100.2 | CS(=O)(=O)N[C@H]1CCN(c2cnc(C(F)(F)F)nc2)[C@H]1CO[C@H]1CC[C@@H](c2ccccc2)CC1 [Example 41]
14 | 10.8 | 100.5 | CS(=O)(=O)N[C@H]1CCN(c2nccc(O)c2Cl)[C@H]1CO[C@H]1CC[C@@H](c2ccccc2)CC1 [Example 120, N-((2R,3S)-1-(3-chloro-4-hydroxypyridin-2-yl)-2-((((CIS)-4-phenylcyclohexyl)oxy)methyl)pyrrolidin-3-yl)methanesulfonamide]
15 | 784 | 97.1 | CS(=O)(=O)N[C@H]1CCN(c2ncccn2)[C@H]1CO[C@H]1CC[C@@H](c2ccccc2)CC1 [Example 38, N-((2R,3S)-2-((((CIS)-4-phenylcyclohexyl)oxy)methyl)-1-(pyrimidin-2-yl)pyrrolidin-3-yl)methanesulfonamide]
16 | 102 | 100.4 | CS(=O)(=O)N[C@H]1CCN(c2ccon2)[C@H]1CO[C@H]1CC[C@@H](c2ccccc2)CC1 [Example 17, N-((2R,3S)-1-(isoxazol-3-yl)-2-((((CIS)-4-phenylcyclohexyl)oxy)methyl)pyrrolidin-3-yl)methanesulfonamide]
17 | 52.4 | 102.3 | Cn1ccc(=O)cc1N1CC[C@H](NS(C)(=O)=O)[C@@H]1CO[C@H]1CC[C@@H](c2ccccc2)CC1 [Example 87, N-((2R,3S)-1-(1-methyl-4-oxo-1,4-dihydropyridin-2-yl)-2-((((CIS)-4-phenylcyclohexyl)oxy)methyl)pyrrolidin-3-yl)methanesulfonamide]
18 | > 10000 | 75.3 | CS(=O)(=O)N[C@H]1CCN(c2ccc(C#N)cn2)[C@H]1CO[C@H]1CC[C@@H](c2ccccc2)CC1 [Example 132, N-((2R,3S)-1-(5-cyanopyridin-2-yl)-2-((((CIS)-4-phenylcyclohexyl)oxy)methyl)pyrrolidin-3-yl)methanesulfonamide]
19 | 90.5 | 100.1 | CS(=O)(=O)N[C@H]1CCN(c2cnc3cc[nH]c3c2)[C@H]1CO[C@H]1CC[C@@H](c2ccccc2)CC1 (relative stereo) [Example 7, N-((CIS)-2-((((CIS)-4-phenylcyclohexyl)oxy)methyl)-1-(1H-pyrrolo[3,2-b]pyridin-6-yl)pyrrolidin-3-yl)methanesulfonamide]
20 | 0.95 | 97.7 | CS(=O)(=O)N[C@H]1CCN(c2cc(O)c(F)cn2)[C@H]1CO[C@H]1CC[C@@H](c2ccccc2)CC1 [Example 151, N-((2R,3S)-1-(5-fluoro-4-hydroxypyridin-2-yl)-2-((((CIS)-4-phenylcyclohexyl)oxy)methyl)pyrrolidin-3-yl)methanesulfonamide]
